# Measured values from EP2545915A1, “2-amino-2-oxoethyl trans-3-[5-(6-methoxy-naphtalen-1-yl)-1,3-dioxan-2-yl]propyl-carbamate for use in the treatment of persistent cancer pain” (SANOFI, priority 2011, dated 2013).
# Where two headings read alike, the source gives them in different places.
# System: UDP-glucuronosyl transferase
# Type: in vitro ADME, human
# Conditions: for % Control (M3G Formation Activity) / % Control (M6G Formation Activity): morphine 2mM, HLM protein 0.5 mg/mL, 30 min
# Description: Incubations were conducted in 2-mL polypropylene centrifuge tubes. Incubation mixtures containing HLM suspension and alamethicin (25 µg/mL) in 0.1 M potassium phosphate buffer (pH 7.4), were placed on wet ice for 5 min. […] Reactions were initiated by the addition of 50 mM UDPGA spiking solution. […] Samples were incubated aerobically in a water bath at 37 °C for the required amount of time and reactions terminated by the addition of 400 µL of the appropriate quench solution. The 2-mL centrifuge tubes were vortex mixed and stored in a -20 °C freezer for ca. 20 min prior to centrifugation at 13.3 × g, 4 °C for 10 min. Supernatants were analyzed by LC-MS/MS for morphine metabolites formation.
# UGT-dependent activities were determined by monitoring the formation of enzyme specific metabolites from marker substrates. […] Incubation with selective inhibitors (positive control) was performed at a concentration above their established IC50 for the confirmation of enzyme activity and inhibitory effects.
# Incubations were performed in 2-mL centrifuge tubes. Incubation mixtures containing HLM suspension and alamethicin (25 µg/mL) in 0.1 M potassium phosphate buffer (pH 7.4), were placed on wet ice for 5 min. […] Reactions were initiated by the addition of UDPGA. The final incubation mixture contained 0.5 mg/mL HLM, 2 mM MgCl2, 5 mM UDPGA, various concentration of Compound A or a selective inhibitor. Samples were incubated aerobically in a water bath at 37 °C for 30 min. The incubation systems were terminated by the addition of a 400-µL quenching solution. The 2-mL centrifuge tubes were vortex mixed and stored in a -20 °C freezer for approximately 20 min prior to centrifugation at 13.3 × g, 4 °C for 10 min. Supernatants were analyzed by LC-MS/MS.
# Percent of Control = Cmet ÷ Ccontrol × 100%
# Cmet: Concentration of the metabolite in the incubations in the presence of Compound A or selective inhibitor
# Ccontrol: Concentration of the enzyme-specific metabolite in the incubations in the absence of Compound A and selective inhibitor
# The IC50 for Compound A was estimated by non-linear regression analysis of individual sets of percent inhibition values using GraphPad Prism 5.
# [1] = positive control incubation, same conditions (2 mM morphine, HLM 0.5 mg/mL, 30 min)
smiles,measurement,setting,value
"COc1ccc2c(cccc2[C@H]2CO[C@H](CCCNC(=O)OCC(N)=O)OC2)c1 [Compound A, 2-amino-2-oxoethyl trans-3-[5-(6-methoxy-naphtalen-1-yl)-1,3-dioxan-2-yl]propyl-carbamate]",IC50,"2 mM morphine in HLM, Compound A 0.5 to 250 µM, M3G and M6G formation monitored",could not be estimated
same,% Control (M3G Formation Activity),Compound A 0.5 µM,97.7%
same,% Control (M6G Formation Activity),Compound A 0.5 µM,96.9%
same,% Control (M3G Formation Activity),Compound A 1.0 µM,96.2%
same,% Control (M6G Formation Activity),Compound A 1.0 µM,94.4%
same,% Control (M3G Formation Activity),Compound A 5.0 µM,106.0%
same,% Control (M6G Formation Activity),Compound A 5.0 µM,102.4%
same,% Control (M3G Formation Activity),Compound A 10 µM,107.9%
same,% Control (M6G Formation Activity),Compound A 10 µM,110.4%
same,% Control (M3G Formation Activity),Compound A 25 µM,108.3%
same,% Control (M6G Formation Activity),Compound A 25 µM,105.8%
same,% Control (M3G Formation Activity),Compound A 50 µM,105.7%
same,% Control (M6G Formation Activity),Compound A 50 µM,108.3%
same,% Control (M3G Formation Activity),Compound A 100 µM,92.7%
same,% Control (M6G Formation Activity),Compound A 100 µM,97.4%
same,% Control (M3G Formation Activity),Compound A 250 µM,94.2%
same,% Control (M6G Formation Activity),Compound A 250 µM,96.5%
same,drug interaction with morphine,according to in vitro results,no significant drug interaction
same,inhibition of morphine metabolism,"human liver microsomes, formation of morphine-3-glucuronide and morphine-6-glucuronide monitored",no inhibition
"CC(=O)N1CCN(c2ccc(OCC3COC(Cn4ccnc4)(c4ccc(Cl)cc4Cl)O3)cc2)CC1 (stereo not drawn) [ketoconazole, reference compound]",inhibition to M3G activity,[1],≥ 98.5%
same,inhibition to M6G activity,[1],≥ 98.5%
